Test results reported in publication PMC6112376, “Comprehensive Analyses and Prioritization of Tox21 10K Chemicals Affecting Mitochondrial Function by in-Depth Mechanistic Studies” (Environmental Health Perspectives, 2018).
Like-named read-outs stand apart in the source and are kept apart here.

Assays:
rat primary hepatocytes [1] = assay: MMP assay in rat primary hepatocytes; details: Rattus norvegicus, Hepatocyte
[2] = test system: isolated rat liver mitochondria; assay: Oxygen consumption, Clark-type oxygen electrode; type: biochemical
[3] = test system: Caenorhabditis elegans (Bristol N2); assay: C. elegans larval development and growth assay
HepG2 cells [4] = details: cited from earlier work; for IC50: read-out: MMP assays IC50 (µM), qHTS-HepG2
[5] = test system: Caenorhabditis elegans strain PE255; assay: In vivo C. elegans ATP status assay
[6] = test system: p53 (p53-bla HCT-116 cells); assay: p53 β-lactamase reporter gene assay; type: cell-based, human; details: 16 h incubation, mean±SD of three experiments
hNSC = assay: MMP assay in human neural stem cells (hNSC); type: cell-based; details: Homo sapiens, Neural stem cell, 1 h, read-out: hNSC IC50 (MMP)
HepG2 cells [7] = assay: cells; details: Homo sapiens; for Emax: HepG2, read-out: MMP assays efficacy (%) HepG2
HepG2 cells [8] = assay: ROS-Glo hydrogen peroxide (ROS) assay; type: cell-based, human
[9] = test system: Nrf2/ARE (ARE-bla HepG2 cells); assay: ARE β-lactamase reporter gene assay; type: cell-based, human; details: 16 h incubation, mean±SD of three experiments
rat primary hepatocytes [10] = test system: rat primary hepatocytes
HepG2 cells [11] = assay: Intracellular ATP content (cell viability) assay; type: cell-based, human; details: Homo sapiens, HepG2, 40 h
[12] = test system: HeLa cells expressing YFP-Parkin; assay: Parkin translocation assay; type: cell-based, human
[13] = 1 h, read-out: Rat hepatocytes IC50 (MMP)
[14] = HepG2, 1 h, read-out: HepG2 IC50 Galactose (MMP)
[15] = HepG2, 1 h, read-out: HepG2 IC50 Glucose (MMP)
[16] = read-out: ATP (HepG2, galactose) IC50
[17] = read-out: ATP (HepG2, glucose) IC50

CO[C@H]1/C=C/O[C@@]2(C)Oc3c(C)c(O)c4c(O)c(c(/C=N/N5CCN(C6CCCC6)CC5)c(O)c4c3C2=O)NC(=O)/C(C)=C\C=C\[C@H](C)[C@H](O)[C@@H](C)[C@@H](O)[C@@H](C)[C@H](OC(C)=O)[C@@H]1C [Rifapentine, reference compound]
IC50 (rat primary hepatocytes [1]; [13]): 5.94 µM
IC50 (rat primary hepatocytes [1]; read-out: MMP assays IC50 (µM) Rat Hepatocytes): 0.62 ± 0.55 µM
Potential Mechanism [2]: Inactive
I-ADP, % of control (O2 consumption rate) ([2]; 4 µM): 88 (48.1) % of control
I-sub, % of control (O2 consumption rate) ([2]; 4 µM): 98 (12.8) % of control
II-ADP, % of control (O2 consumption rate) ([2]; 4 µM): 94 (82.6) % of control
II-sub, % of control (O2 consumption rate) ([2]; 4 µM): 92 (22.7) % of control
I-ADP, % of control (O2 consumption rate) ([2]; 20 µM): 86 (47.1) % of control
I-sub, % of control (O2 consumption rate) ([2]; 20 µM): 127 (16.7) % of control
II-ADP, % of control (O2 consumption rate) ([2]; 20 µM): 85 (75.2) % of control
II-sub, % of control (O2 consumption rate) ([2]; 20 µM): 101 (24.8) % of control
effect on larval growth (in words) ([3]; 0.5–100μM): did not affect growth
MMP assays efficacy (%) qHTS-HepG2 (HepG2 cells [4]): -104±16%
IC50 (HepG2 cells [4]): 1.46 ± 0.26 µM
effect on ATP content (in words) ([5]; 0.5–100μM): statistically significant decreases in ATP content
minimal effective concentration ([5]; Caenorhabditis elegans, read-out: LEC LUM: lowest effect concentration for luminescence, a measure of nematode ATP content): 100 µM
p53 (HCT-116) EC50 [6]: Inactive
IC50 (hNSC): 8070 nM
IC50 (HepG2 cells [7]; [14]): 17.7 µM
IC50 (HepG2 cells [7]; [15]): 13.9 µM
IC50 (HepG2 cells [7]; HepG2, read-out: MMP assays IC50 (µM) HepG2): 3.88 µM
Emax (HepG2 cells [7]): 101%
ROS (HepG2) EC50 (HepG2 cells [8]): Inactive
EC50 ([9]; Homo sapiens, HepG2, read-out: ARE (HepG2) EC50): 29300 ± 7090 nM
Rat hepatocytes (efficacy) (MMP) (rat primary hepatocytes [10]): 5.94±1.48 ( −73.4±10.2 ) %
IC50 (HepG2 cells [11]; [16]): 36000 nM
IC50 (HepG2 cells [11]; [17]): 43400 nM
Parkin recruitment [12]: Inactive

O=C(Nc1ccc([N+](=O)[O-])cc1Cl)c1cc(Cl)ccc1O [Niclosamide, reference compound]
IC50 (rat primary hepatocytes [1]; 1 h, read-out: IC50 in rat primary hepatocytes (MMP, tier-one retest)): 0.44 µM
IC50 (rat primary hepatocytes [1]; [13]): 1.36 µM
Potential Mechanism [2]: Uncoupler at low concentrations (0.064-0.16 µM), and Uncoupler + inhibitor at high concentrations (0.8-100 µM)
I-ADP, % of control (O2 consumption rate) ([2]; 0.00128 µM): 85 (30.5) % of control
I-sub, % of control (O2 consumption rate) ([2]; 0.00128 µM): 109 (10.5) % of control
II-ADP, % of control (O2 consumption rate) ([2]; 0.00128 µM): 92 (49.0) % of control
II-sub, % of control (O2 consumption rate) ([2]; 0.00128 µM): 108 (17.7) % of control
I-ADP, % of control (O2 consumption rate) ([2]; 0.0064 µM): 88 (31.4) % of control
I-sub, % of control (O2 consumption rate) ([2]; 0.0064 µM): 125 (12.0) % of control
II-ADP, % of control (O2 consumption rate) ([2]; 0.0064 µM): 87 (46.4) % of control
II-sub, % of control (O2 consumption rate) ([2]; 0.0064 µM): 109 (17.9) % of control
I-ADP, % of control (O2 consumption rate) ([2]; 0.032 µM): 103 (36.6) % of control
I-sub, % of control (O2 consumption rate) ([2]; 0.032 µM): 192 (18.4) % of control
II-ADP, % of control (O2 consumption rate) ([2]; 0.032 µM): 89 (47.7) % of control
II-sub, % of control (O2 consumption rate) ([2]; 0.032 µM): 132 (21.7) % of control
I-ADP, % of control (O2 consumption rate) ([2]; 0.16 µM): 126 (45.0) % of control
I-sub, % of control (O2 consumption rate) ([2]; 0.16 µM): 419 (40.2) % of control
II-ADP, % of control (O2 consumption rate) ([2]; 0.16 µM): 92 (49.0) % of control
II-sub, % of control (O2 consumption rate) ([2]; 0.16 µM): 230 (37.8) % of control
I-ADP, % of control (O2 consumption rate) ([2]; 0.8 µM): 85 (30.2) % of control
I-sub, % of control (O2 consumption rate) ([2]; 0.8 µM): 308 (29.6) % of control
II-ADP, % of control (O2 consumption rate) ([2]; 0.8 µM): 53 (28.1) % of control
II-sub, % of control (O2 consumption rate) ([2]; 0.8 µM): 204 (33.5) % of control
I-ADP, % of control (O2 consumption rate) ([2]; 4 µM): 70 (25.1) % of control
I-sub, % of control (O2 consumption rate) ([2]; 4 µM): 276 (26.5) % of control
II-ADP, % of control (O2 consumption rate) ([2]; 4 µM): 39 (21.1) % of control
II-sub, % of control (O2 consumption rate) ([2]; 4 µM): 147 (24.1) % of control
I-ADP, % of control (O2 consumption rate) ([2]; 20 µM): 79 (28.1) % of control
I-sub, % of control (O2 consumption rate) ([2]; 20 µM): 308 (29.6) % of control
II-ADP, % of control (O2 consumption rate) ([2]; 20 µM): 37 (19.6) % of control
II-sub, % of control (O2 consumption rate) ([2]; 20 µM): 145 (23.8) % of control
I-ADP, % of control (O2 consumption rate) ([2]; 100 µM): 93 (42.6) % of control
I-sub, % of control (O2 consumption rate) ([2]; 100 µM): 296 (45.9) % of control
II-ADP, % of control (O2 consumption rate) ([2]; 100 µM): 44 (31.3) % of control
II-sub, % of control (O2 consumption rate) ([2]; 100 µM): 119 (37.3) % of control
EXT: mean difference in nematode size relative to plate controls ([3]; 0.5 µM): 0.005018
EXT: mean difference in nematode size relative to plate controls ([3]; 1 µM): -0.03083
EXT: mean difference in nematode size relative to plate controls ([3]; 5 µM): -0.00657
EXT: mean difference in nematode size relative to plate controls ([3]; 10 µM): 0.2753
EXT: mean difference in nematode size relative to plate controls ([3]; 25 µM): 0.1226
EXT: mean difference in nematode size relative to plate controls ([3]; 50 µM): 0.2162
MMP assays efficacy (%) qHTS-HepG2 (HepG2 cells [4]): -98±4%
IC50 (HepG2 cells [4]): 0.03 ± 0.01 µM
LUM: mean difference in luminescence (ATP content) relative to plate controls ([5]; 0.5 µM): 0.1961
LUM: mean difference in luminescence (ATP content) relative to plate controls ([5]; 1 µM): 0.1905
LUM: mean difference in luminescence (ATP content) relative to plate controls ([5]; 5 µM): 0.2783
LUM: mean difference in luminescence (ATP content) relative to plate controls ([5]; 10 µM): 0.1333
LUM: mean difference in luminescence (ATP content) relative to plate controls ([5]; 25 µM): 0.2438
LUM: mean difference in luminescence (ATP content) relative to plate controls ([5]; 50 µM): 0.3
LUM: mean difference in luminescence (ATP content) relative to plate controls ([5]; 75 µM): 0.12
LUM: mean difference in luminescence (ATP content) relative to plate controls ([5]; 100 µM): 0.1413
EC50 ([6]; Homo sapiens): 580 ± 490 nM
IC50 (hNSC): 420 nM
IC50 (HepG2 cells [7]; [14]): 1.47 µM
IC50 (HepG2 cells [7]; [15]): 0.87 µM
IC50 (HepG2 cells [7]; HepG2, read-out: IC50 in HepG2 cells (MMP, tier-one retest)): 0.1 µM
Emax (HepG2 cells [7]): 87%
ROS (HepG2) EC50 (HepG2 cells [8]): Inactive
ARE (HepG2) EC50 [9]: Inactive
MMP assays efficacy (%) Rat Hepatocytes (rat primary hepatocytes [10]): -112±30%
Rat hepatocytes (efficacy) (MMP) (rat primary hepatocytes [10]): 1.36±0.16 ( −107±13.5 ) %
IC50 (HepG2 cells [11]; [16]): 2260 nM
IC50 (HepG2 cells [11]; [17]): 2010 nM
Parkin recruitment [12]: Active
